Assay results taken from patent US8362067B2, “3-aminoalkyl-1,3-dihydro-2H-indol-2-one derivatives, preparation thereof and therapeutic use thereof” (Sanofi, priority 2008, dated 2013).
Structures can show the parent of a compound that is named as a salt.

What was measured:
[1] = molecular target: human arginine-vasopressin V1a receptors (Homo sapiens, UniProt P37288); assay: Affinity for human V1a receptors: displacement of [3H]-AVP; type: binding; conditions: for IC50: binding, displacement of [3H]-AVP; for selectivity for human AVP V1a receptors and for human AVP V1b receptors: versus V2 and/or oxytocin receptors
Chain of human arginine-vasopressin V1a receptors (P37288 whole entry): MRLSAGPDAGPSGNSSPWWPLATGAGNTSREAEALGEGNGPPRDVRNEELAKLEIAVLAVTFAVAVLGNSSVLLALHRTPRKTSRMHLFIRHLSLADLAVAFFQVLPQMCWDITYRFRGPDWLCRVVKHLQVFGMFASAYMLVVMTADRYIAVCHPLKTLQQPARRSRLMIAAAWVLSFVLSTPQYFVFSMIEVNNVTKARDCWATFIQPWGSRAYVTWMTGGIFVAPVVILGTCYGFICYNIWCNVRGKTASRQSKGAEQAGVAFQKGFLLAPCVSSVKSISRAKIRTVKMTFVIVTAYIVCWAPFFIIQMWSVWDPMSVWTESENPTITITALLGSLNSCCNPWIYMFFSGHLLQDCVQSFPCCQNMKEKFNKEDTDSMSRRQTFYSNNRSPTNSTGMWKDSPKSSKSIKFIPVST
Description: (§1) The affinity of the compounds of formula (I) according to the invention for arginine-vasopressin V1a receptors was determined in vitro using the method described by M. Thibonnier et al., J. Biol. Chem., 1994, 269, 3304-3310. This method consists in studying in vitro the displacement of tritiated arginine-vasopressin ([^3H]-AVP) at the V1a receptors present on membrane or cell preparations carrying rat or human V1a receptors.
(§2) The comparative pharmacological results of Compounds Nos. 17, 38, 46, 107 and 108 according to the invention with the compounds α and β of the prior art on the various in vitro tests measuring the affinity at human V1a, V1b, V2 and oxytocin receptors are illustrated in the following TABLE XV. The results are expressed by the 50% inhibitory concentration (IC50) expressed on a nanomolar basis (nM).

[2] = molecular target: T1, human V1b receptors (Homo sapiens, UniProt P47901); assay: Affinity for human V1b receptors: displacement of [3H]-AVP; conditions: binding
T1 sequence (P47901 1-424): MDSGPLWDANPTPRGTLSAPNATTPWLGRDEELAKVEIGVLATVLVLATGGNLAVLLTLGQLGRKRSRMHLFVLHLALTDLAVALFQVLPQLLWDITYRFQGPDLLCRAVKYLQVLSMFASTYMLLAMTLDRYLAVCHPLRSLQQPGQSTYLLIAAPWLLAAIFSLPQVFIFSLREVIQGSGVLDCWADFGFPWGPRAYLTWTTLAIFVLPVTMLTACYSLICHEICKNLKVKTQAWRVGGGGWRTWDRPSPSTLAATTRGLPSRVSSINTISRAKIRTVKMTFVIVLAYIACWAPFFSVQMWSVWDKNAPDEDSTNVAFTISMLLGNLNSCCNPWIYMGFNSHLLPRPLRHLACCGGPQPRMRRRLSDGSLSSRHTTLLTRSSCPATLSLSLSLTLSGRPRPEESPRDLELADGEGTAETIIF
Description: as §1, with “V1b” for “V1a”, “Y. de Keyser” for “M. Thibonnier”, “al. in Febs Letters,” for “al., J. Biol. Chem.,”, “356, 215-220.” for “269, 3304-3310.”, “on” for “on membrane or”, “carrying” for “carrying rat or”
as §2

[3] = molecular target: human V2 receptors (Homo sapiens, UniProt P30518); assay: Affinity for vasopressin V2 receptors; type: binding; conditions: for IC50: binding
Chain of human V2 receptors (P30518 whole entry): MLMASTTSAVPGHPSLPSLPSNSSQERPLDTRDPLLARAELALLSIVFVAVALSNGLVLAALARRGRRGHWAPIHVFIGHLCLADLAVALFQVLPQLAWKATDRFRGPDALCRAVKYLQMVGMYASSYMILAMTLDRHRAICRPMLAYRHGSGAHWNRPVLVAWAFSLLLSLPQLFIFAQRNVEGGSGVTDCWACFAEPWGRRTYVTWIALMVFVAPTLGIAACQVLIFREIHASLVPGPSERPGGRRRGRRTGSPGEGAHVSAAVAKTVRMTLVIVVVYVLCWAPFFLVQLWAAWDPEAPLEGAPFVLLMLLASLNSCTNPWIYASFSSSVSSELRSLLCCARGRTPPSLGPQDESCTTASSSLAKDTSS
From the text: The affinity of the compounds of formula (I) according to the invention for vasopressin V2 receptors was also studied (method described by M. Birnbaumer et al. in Nature (Lond.), 1992, 357, 333-335).
as §2

[4] = molecular target: T2, human uterine oxytocin receptor (Homo sapiens, UniProt P30559); assay: Affinity for oxytocin receptors: displacement of a radioiodinated oxytocin analog; type: binding; conditions: for IC50: binding, radioiodinated oxytocin analog
T2 construct: expressed in transfected cells
T2 sequence (P30559 1-389): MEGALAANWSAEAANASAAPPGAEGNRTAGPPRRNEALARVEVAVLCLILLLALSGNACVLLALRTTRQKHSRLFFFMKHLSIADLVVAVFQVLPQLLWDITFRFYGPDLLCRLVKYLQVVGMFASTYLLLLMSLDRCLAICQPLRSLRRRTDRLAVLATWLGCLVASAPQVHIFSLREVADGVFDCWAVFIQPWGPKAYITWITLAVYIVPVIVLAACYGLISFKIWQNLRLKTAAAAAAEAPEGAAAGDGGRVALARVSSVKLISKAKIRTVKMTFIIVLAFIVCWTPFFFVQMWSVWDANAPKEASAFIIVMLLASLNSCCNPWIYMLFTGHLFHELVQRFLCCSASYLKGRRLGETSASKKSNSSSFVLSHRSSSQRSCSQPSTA
Description: The affinity of the compounds according to the invention for oxytocin receptors was determined in an in vitro binding test using the method described by J. Elands et al. in Eur. J. Pharmacol., 1987, 147, 197-207. This method consists in studying in vitro the displacement of a radioiodinated oxytocin analog at the oxytocin receptors in a cell membrane preparation transfected with the human uterine oxytocin receptor.
as §2

| melting point [°C] | SMILES | also measured |
| --- | --- | --- |
| 243 | COc1ccc(S(=O)(=O)N2C(=O)C(CCCN3CCNCC3)(c3ccccc3F)c3cc(Cl)c(OC)cc32)c(OC)c1 (stereo not drawn) (as salt: HCl) [compound 16, 5-chloro-1-[(2,4-dimethoxyphenyl)sulfonyl]-3-(2-fluorophenyl)-6-methoxy-3-(3-(piperazin-1-yl)propyl)-1,3-dihydro-2H-indol-2-one] |  |
| 220 | CCOc1ccc(S(=O)(=O)N2C(=O)C(CCCN3CCNCC3)(c3ccccc3F)c3cc(Cl)c(OC)cc32)cc1OC (stereo not drawn) (as salt: HCl) [compound 18, 5-chloro-1-[(4-ethoxy-3-methoxyphenyl)sulfonyl]-3-(2-fluorophenyl)-6-methoxy-3-(3-(piperazin-1-yl)propyl)-1,3-dihydro-2H-indol-2-one] |  |
| 190 | COc1cc2c(cc1Cl)C(CCCN1CCNCC1)(c1ccccc1F)C(=O)N2S(=O)(=O)c1ccc(OC)c(OC)c1 (stereo not drawn) (as salt: HCl) [compound 19, 5-chloro-1-[(3,4-dimethoxyphenyl)sulfonyl]-3-(2-fluorophenyl)-6-methoxy-3-(3-(piperazin-1-yl)propyl)-1,3-dihydro-2H-indol-2-one] |  |
| 192 | COc1cc2c(cc1Cl)C(CCCN1CCNCC1)(c1ccccc1F)C(=O)N2S(=O)(=O)c1ccc(C)c(C)c1 (stereo not drawn) (as salt: HCl) [compound 20, 5-chloro-1-[(3,4-dimethylphenyl)sulfonyl]-3-(2-fluorophenyl)-6-methoxy-3-(3-(piperazin-1-yl)propyl)-1,3-dihydro-2H-indol-2-one] |  |
| 234 | COc1ccc(S(=O)(=O)N2C(=O)C(CCCN3CCNCC3)(c3ccccc3F)c3cc(Cl)c(OC)cc32)cc1C (stereo not drawn) (as salt: HCl) [compound 21, 5-chloro-3-(2-fluorophenyl)-6-methoxy-1-[(4-methoxy-3-methylphenyl)sulfonyl]-3-(3-(piperazin-1-yl)propyl)-1,3-dihydro-2H-indol-2-one] |  |
| 226 | CCOc1ccc(S(=O)(=O)N2C(=O)C(CCCN3CCNCC3)(c3ccccc3F)c3cc(Cl)c(OC)cc32)cc1C (stereo not drawn) (as salt: HCl) [compound 23, 5-chloro-1-[(4-ethoxy-3-methylphenyl)sulfonyl]-3-(2-fluorophenyl)-6-methoxy-3-(3-(piperazin-1-yl)propyl)-1,3-dihydro-2H-indol-2-one] |  |
| 152 | COc1ccc(S(=O)(=O)N2C(=O)C(CCCN3CCNCC3)(c3ccccc3F)c3cc(F)c(OC)cc32)cc1C (stereo not drawn) (as salt: HCl) [compound 107] |  |
| 160 | COc1ccc(S(=O)(=O)N2C(=O)C(CCCN3CCNCC3)(c3ccccc3F)c3cc(OC)c(OC)cc32)cc1C (stereo not drawn) (as salt: HCl) [compound 108] |  |

More lines, now with the values behind:

| SMILES | melting point [°C] | also measured |
| --- | --- | --- |
| CCOc1ccc(S(=O)(=O)N2C(=O)C(CCCN3CC[C@H](N)C3)(c3ccccc3F)c3cc(Cl)c(OC)cc32)cc1OC (stereo partly drawn) (as salt: HCl) [Compound No. 7, 3-{3-[(3S)-3-aminopyrrolidin-1-yl]propyl}-5-chloro-1-[(4-ethoxy-3-methoxy-phenyl)sulfonyl]-3-(2-fluorophenyl)-6-methoxy-1,3-dihydro-2H-indol-2-one] | 238 |  |
| COc1cccc(S(=O)(=O)N2C(=O)C(CCCN3CCN(C)CC3)(c3ccccc3F)c3cc(Cl)c(OC)cc32)c1 (stereo not drawn) (as salt: HCl) [Compound No. 38] | 147 |  |
| COc1cc2c(cc1Cl)C(CCCN1CCNCC1)(c1ccccc1F)C(=O)N2S(=O)(=O)c1ccc(O)cc1 (stereo not drawn) (as salt: HCl) [Compound No. 46] | 292 |  |
| CCOc1ccc(S(=O)(=O)N2C(=O)C(CCCN3CCNCC3)(c3ccccc3F)c3cc(Cl)c(OC)cc32)cc1 (stereo not drawn) (as salt: HCl) [compound 22, 5-chloro-1-[(4-ethoxyphenyl)sulfonyl]-3-(2-fluorophenyl)-6-methoxy-3-(3-(piperazin-1-yl)propyl)-1,3-dihydro-2H-indol-2-one] | 213 |  |
| COc1cc2c(cc1Cl)C(CCCN1CCNCC1)(c1ccccc1F)C(=O)N2S(=O)(=O)c1ccc(OC(F)F)cc1 (stereo not drawn) (as salt: HCl) [compound 24, 5-chloro-1-{[4-(difluoromethoxy)phenyl]sulfonyl}-3-(2-fluorophenyl)-6-methoxy-3-(3-(piperazin-1-yl)propyl)-1,3-dihydro-2H-indol-2-one] | 218 |  |
| COc1cc2c(cc1Cl)C(CCCN1CCNCC1)(c1ccccc1F)C(=O)N2S(=O)(=O)c1ccc(OC(F)(F)F)cc1 (stereo not drawn) (as salt: HCl) [compound 25, 5-chloro-3-(2-fluorophenyl)-6-methoxy-3-(3-(piperazin-1-yl)propyl)-1-{[4-(tri-fluoromethoxy)phenyl]sulfonyl}-1,3-dihydro-2H-indol-2-one] | 220 |  |
| COc1cc2c(cc1Cl)C(CCCN1CCNCC1)(c1ccccc1F)C(=O)N2S(=O)(=O)c1ccccc1 (stereo not drawn) (as salt: HCl) [compound 26, 5-chloro-3-(2-fluorophenyl)-6-methoxy-1-(phenylsulfonyl)-3-(3-(piperazin-1-yl)propyl)-1,3-dihydro-2H-indol-2-one] | 238 |  |
| COc1ccc(S(=O)(=O)N2C(=O)C(CCCC3CCNCC3)(c3ccccc3F)c3cc(Cl)c(OC)cc32)c(OC)c1.Cl (stereo not drawn) [Compound No. 1] | 163 |  |
| COc1ccc(S(=O)(=O)N2C(=O)C(CCCC3CCNCC3)(c3ccccc3F)c3cc(Cl)c(OC)cc32)c(OC)c1.Cl (stereo not drawn) [Compound No. 2] | 175 |  |
| COc1cccc(S(=O)(=O)N2C(=O)C(CCCN3CCN(C)CC3)(c3ccccc3F)c3cc(Cl)c(OC)cc32)c1 (stereo not drawn) [Compound No. 38] |  | IC50 [1]: 1.1 nM; IC50 [2]: > 1000 nM; IC50 [3]: > 1000 nM; IC50 [4]: 500 nM |
| COc1cc2c(cc1Cl)C(CCCN1CCNCC1)(c1ccccc1F)C(=O)N2S(=O)(=O)c1ccc(O)cc1 (stereo not drawn) [Compound No. 46] |  | IC50 [1]: 2.4 nM; IC50 [2]: 640 nM; IC50 [3]: > 1000 nM; IC50 [4]: 380 nM |
| CCN(CC)C(=O)Nc1ccc(S(=O)(=O)N2C(=O)C(NCCC3CCNCC3)(c3ccccc3Cl)c3cc(Cl)c(Cl)cc32)cc1 (stereo not drawn) [Compound α, 3-[4-[[5,6-dichloro-3-(2-chlorophenyl)-2-oxo-3-[(2-(piperidin-4-yl)ethyl)amino]-2,3-dihydro-1H-indol-1-yl]sulfonyl]phenyl]-1,1-diethylurea, reference compound] |  | affinity for human AVP V1a receptors [1]: good affinity; selectivity for human AVP V1a receptors and for human AVP V1b receptors [1]: not selective; affinity for human AVP V2 receptors [3]: good affinity; affinity for oxytocin receptors [4]: good affinity |
| CCN(CC)C(=O)Nc1ccc(S(=O)(=O)N2C(=O)C(NCCC3CCNCC3)(c3ccccc3Cl)c3cc(Cl)c(C)cc32)cc1 (stereo not drawn) [Compound β, 3-[4-[[5-chloro-3-(2-chlorophenyl)-6-methyl-2-oxo-3-[(2-(piperidin-4-yl)ethyl)amino]-2,3-dihydro-1H-indol-1-yl]sulfonyl]phenyl]-1,1-diethylurea, reference compound] |  | affinity for human AVP V1a receptors [1]: good affinity; selectivity for human AVP V1a receptors and for human AVP V1b receptors [1]: not selective; affinity for human AVP V2 receptors [3]: good affinity |
| CCOc1ccc(S(=O)(=O)N2C(=O)C(CCCN3CCC(F)(F)CC3)(c3ccccc3F)c3cc(Cl)c(OC)cc32)cc1OC (stereo not drawn) [compound 9, 5-chloro-3-[3-(4,4-difluoropiperidin-1-yl)propyl]-1-[(4-ethoxy-3-methoxy-phenyl)sulfonyl]-3-(2-fluorophenyl)-6-methoxy-1,3-dihydro-2H-indol-2-one] | 88 |  |
